Holding throughout (experiment): NCI anticancer screen, dose series, 48 h
Assay [1] concerns UACC-62 melanoma.
For assay [2], the system named is NCI/ADR-RES ovarian.
Assay [3] has as its system MALME-3M melanoma.
The subject of assay [4] is HT29 colon.
Assay [5] relates to MDA-N.
Assay [6] concerns HOP-92 NSCLC.
Assay [7] concerns SK-MEL-5 melanoma.
Assay [8] has as its system NCI-H460 lung.
Assay [9] concerns A498 renal.
Assay [10] concerns NCI-H226 lung.

Several values for one entry are separate records, joined by “and”; a condition that tells them apart may be missing. Equal values may be shown once.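 Five concentrations, 48 hours, 96-well plates. The concentration for 50% growth inhibition is given as GI50. TGI: concentration producing complete growth inhibition.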 Some results are limits rather than exact numbers.

In the case of `O=C1CSC2(CC(/C=C/c3ccccc3[N+](=O)[O-])=NN2c2cccc(S(=O)(=O)O)c2)N1c1nc2ccccc2s1` (stereo unspecified), the TGI in assay [1] is 29 µM; in [2] it was 50.7 µM; in assay [3], above 75 µM; in assay [4], 69.1 µM; in assay [5] it was 50.6 µM; in [6], 56.7 µM. The TGI in assay [7] is above 75 µM; in [8], 52.7 µM; in [9] it was 38.7 µM; in [10], 44.1 µM.
For `CCN(CC)CCCNc1c2cc(OC)ccc2nc2cccc([N+](=O)[O-])c12`, the TGI is 0.359 µM in assay [1]; 1.51 µM in assay [2]; 0.263 µM in assay [3]; 0.453 µM in assay [4]; 0.277 µM in [5]; 0.239 µM in assay [6]. The TGI came to 0.238 µM in assay [7], 0.0596 µM in [8], 0.0647 µM in assay [9] and 0.51 µM in assay [10].
Take `O=C(Nc1ccccn1)c1cc2c(cc1Cl)Sc1nccn1S2(=O)=O`: the TGI in assay [1] was above 100 µM; in assay [2], 85.6 µM; in assay [3], above 100 µM; in assay [4], above 100 µM; in [5] it was above 100 µM; in [6] it was above 100 µM. Moreover, the TGI in [7] was 67.6 µM; in assay [8], above 100 µM; in assay [9], above 100 µM; in assay [10] it was 57.3 µM.
As to `c1ccc2c[n+](Cc3ccnc4ccccc34)ccc2c1`, the TGI in [1], in assay [2], in [3], in assay [4], in assay [5] and in [6] was above 100 µM in each case. Besides, the TGI in assay [7], in assay [8], in assay [9] and in assay [10] was above 100 µM in each case.
As to `C[C@@H](Br)[C@@H]1CC[C@H]2c3[nH]c4ccccc4c3CCN2C1`, the TGI in assay [1] was determined as 33.5 µM; in [2], 47.3 µM; in [3], 40.3 µM; in [4], 67.8 µM; in assay [5] it was 44 µM; in [6], 65.2 µM. Further, the TGI in [7] is 29.4 µM; in assay [8], 70.1 µM; in [9] it was above 100 µM; in assay [10] it was above 100 µM.
Consider `CC(=O)Nc1ccc2cc3c(nc2n1)c1cccnc1n3S(=O)(=O)c1ccccc1`, for which the TGI in assay [1], in assay [2], in [3], in [4], in assay [5] and in assay [6] was above 100 µM in each case. In addition, the TGI in assay [7], in [8], in assay [9] and in assay [10] was above 100 µM each time.
With `Cc1nc2ccccc2n1Cc1ccc(NC(=S)NC2CCCCC2)cc1`, the TGI in assay [1] is above 89.7 µM; in assay [2] it was above 100 µM; in assay [3], above 100 µM; in [4], above 100 µM; in assay [5], above 100 µM; in [6], above 100 µM. The TGI was above 51.4 µM in assay [7], above 100 µM in assay [8], above 100 µM in assay [9] and above 100 µM in assay [10].
Take `CC1(C)C/C=C\CCC(O)C(O)CCC(C)(C)C1=O` (stereo unspecified): the TGI in assay [1], in assay [2], in [3], in assay [4], in assay [5] and in [6] was above 100 µM throughout. Further, the TGI in assay [7], in [8], in [9] and in assay [10] was above 100 µM each time.
As to `CCN(CC)C(=O)CCNC(C)Cc1c[nH]c2ccccc12` (stereo unspecified), the TGI in assay [1], in assay [2], in assay [3], in assay [4], in assay [5] and in assay [6] was above 100 µM each time. Moreover, the TGI in [7], in assay [8], in assay [9] and in assay [10] was above 100 µM each time.
As for `CCOC(=O)C1=CN(Cc2ccccc2)C2ON=C(c3ccc(Cl)cc3)C2C1` (stereo unspecified), the TGI in assay [1] was above 69.2 µM; in assay [2], above 72.3 µM; in [3] it was above 71.8 µM; in assay [4] it was above 71.4 µM; in assay [5], above 68.9 µM; in assay [6], above 100 µM. The TGI in assay [7] is above 65 µM; in assay [8], above 65 µM; in assay [9] it was above 56.8 µM; in assay [10], above 74.3 µM.
For `N#C[C@H](c1nc2ccccc2[nH]1)c1nc2ccccc2nc1Cl`, the TGI is above 38.8 µM in [1]; above 100 µM in assay [2]; 31.7 µM in assay [3]; above 52.2 µM in [4]; above 62.9 µM in [5]; above 75.6 µM in [6]. In addition, the TGI is 36 µM in assay [7], above 53.8 µM in [8], above 60.6 µM in assay [9] and 64.7 µM in [10].
On to `COc1ccc(/C=C2/C(=O)C(c3ccccc3)N(c3ccccc3)C2=O)cc1OC` (stereo unspecified), for which the TGI in assay [1], in assay [2], in [3], in assay [4], in [5] and in assay [6] was above 10 µM throughout. For the same molecule, the TGI in [7] was 0.307 µM; in [8] it was above 10 µM; in assay [9] it was 2.75 µM; in [10] it was above 10 µM.
Consider `[B]C(=O)NC(CC(C)C)C(=O)NC1c2ccsc2C(=O)C1O` (stereo unspecified) (tested in a mixture with another compound), for which the TGI in assay [1], in assay [2], in [3], in assay [4], in assay [5] and in assay [6] was above 100 µM throughout. Further, the TGI in [7], in assay [8], in [9] and in assay [10] was above 100 µM each time. Further, in assay [6], the GI50 is 44.6 µM and > 100 µM.

(Values after PubChem BioAssay (NCI).)
